Reference: ChEMBL document CHEMBL1201862, “PubChem BioAssay data set” (2004)
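Interpolation was linear, between the two tested concentrations surrounding the appropriate level; five concentrations were tested over 48 hours in 96-well plates. GI50 marks 50% less growth.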 Calls of active or inactive are those of the source. Cut-off read from the data, not from the text of the source: active = GI50 up to about 1.1 µM and inactive = higher.

How the values were obtained:
Experiment in all cases: NCI anticancer screen, dose series, 48 h
NCI-H23 = tested on: NCI-H23
KM12 = tested on: KM12
Malme-3M = tested on: Malme-3M
M14 = tested on: M14
Hs-578T = tested on: Hs-578T
SK-MEL-28 = tested on: SK-MEL-28
A549 = tested on: A549
UACC-62 = tested on: UACC-62
NCI-H522 = tested on: NCI-H522
SNB-19 = tested on: SNB-19
MDA-MB-435 = tested on: MDA-MB-435
MOLT-4 = tested on: MOLT-4
NCI/ADR-RES = tested on: NCI/ADR-RES
MCF7 = tested on: MCF7
HOP-92 = tested on: HOP-92
HCT-116 = tested on: HCT-116
SW-620 = tested on: SW-620

SMILES	GI50 (NCI-H23)	GI50 (KM12)	GI50 (Malme-3M)	GI50 (M14)	GI50 (Hs-578T)	GI50 (SK-MEL-28)	GI50 (A549)	GI50 (UACC-62)	GI50 (NCI-H522)	GI50 (SNB-19)	GI50 (MDA-MB-435)	GI50 (MOLT-4)	GI50 (NCI/ADR-RES)	GI50 (MCF7)	GI50 (HOP-92)	GI50 (HCT-116)	GI50 (SW-620)
O=C1NC2(CCNCC2)Oc2ccccc21	> 100 µM (inactive)	> 100 µM (inactive)	> 100 µM (inactive)	> 100 µM (inactive)	> 100 µM (inactive)	> 100 µM (inactive)	> 100 µM (inactive)	> 100 µM (inactive)	> 100 µM (inactive)	> 100 µM (inactive)	> 100 µM (inactive)	> 100 µM (inactive)	> 100 µM (inactive)	> 100 µM (inactive)	> 100 µM (inactive)	> 100 µM (inactive)	> 100 µM (inactive)
COc1ccc2nc3cccc([N+](=O)[O-])c3c(NCCO)c2c1	0.0219 µM (active)	0.0255 µM (active)	0.016 µM (active)	0.00762 µM (active)	0.0169 µM (active)	0.0277 µM (active)	0.0198 µM (active)	0.0182 µM (active)	0.017 µM (active)	0.0486 µM (active)	0.00656 µM (active)	0.0255 µM (active)	0.0182 µM (active)	0.018 µM (active)	0.0195 µM (active)	0.00178 µM (active)	0.00164 µM (active)
COc1ccc(C(SCCO)(c2ccc(OC)cc2)c2ccc(OC)cc2)cc1	17.7 µM (inactive)	15.3 µM (inactive)	17.6 µM (inactive)	15.9 µM (inactive)	17.2 µM (inactive)	17.9 µM (inactive)	17.7 µM (inactive)	14 µM (inactive)	12.4 µM (inactive)	26.9 µM (inactive)	5.79 µM (inactive)	10.9 µM (inactive)	13.6 µM (inactive)	14.8 µM (inactive)	10.1 µM (inactive)	14.3 µM (inactive)	15 µM (inactive)
CC(C)(C)OC(=O)NC(Cc1ccc([N+](=O)[O-])cc1)C(=O)NC(CCCCNC(=O)OCc1ccccc1)C(=O)ON1C(=O)CCC1=O (configuration not stated)	> 100 µM (inactive)	> 100 µM (inactive)	> 100 µM (inactive)	70.3 µM (inactive)	> 100 µM (inactive)	> 100 µM (inactive)	> 100 µM (inactive)	> 100 µM (inactive)	> 100 µM (inactive)	> 100 µM (inactive)	> 100 µM (inactive)	57.9 µM (inactive)	> 100 µM (inactive)	> 100 µM (inactive)	> 100 µM (inactive)	73.5 µM (inactive)	26.7 µM (inactive)
CC(=O)OC(C)c1cc2c(s1)C(=O)c1sccc1C2=O (configuration not stated)	0.221 µM (active)	1.75 µM (inactive)	0.21 µM (active)	0.14 µM (active)	0.807 µM (active)	0.916 µM (active)	1.17 µM (inactive)		1.27 µM (inactive)	1.29 µM (inactive)	0.192 µM (active)	2.7 µM (inactive)	1.71 µM (inactive)	0.995 µM (active)	3.51 µM (inactive)	1.46 µM (inactive)	0.714 µM (active)
Cc1cc(S(=O)(=O)Nc2nc3ccccc3nc2-c2cccc([N+](=O)[O-])c2)c(S)cc1Cl	17.1 µM (inactive)	15.6 µM (inactive)	18.5 µM (inactive)	17.2 µM (inactive)	23.6 µM (inactive)	15.8 µM (inactive)	16.1 µM (inactive)	12.3 µM (inactive)	16.8 µM (inactive)	16.5 µM (inactive)	19.8 µM (inactive)	22.6 µM (inactive)	19.9 µM (inactive)	24 µM (inactive)	17.9 µM (inactive)	18.8 µM (inactive)	
COc1cc(Nc2cc(Cl)cc(Cl)c2)nc(N)n1	20.3 µM (inactive)	17.1 µM (inactive)	21.3 µM (inactive)	20.1 µM (inactive)	26.2 µM (inactive)		19.9 µM (inactive)	17.1 µM (inactive)	20.4 µM (inactive)	22.9 µM (inactive)	24.5 µM (inactive)	16.6 µM (inactive)	20.5 µM (inactive)	27.2 µM (inactive)	16.4 µM (inactive)	16.9 µM (inactive)	19.7 µM (inactive)
COC(=O)[C@H]1C=NN[C@@H]1C(=O)N1[C@H]2CC3CC[C@@]2(CS1(=O)=O)C3(C)C	> 100 µM (inactive)	> 100 µM (inactive)	> 100 µM (inactive)	> 100 µM (inactive)	> 100 µM (inactive)	> 100 µM (inactive)	> 100 µM (inactive)		> 100 µM (inactive)	> 100 µM (inactive)	> 100 µM (inactive)	> 100 µM (inactive)	> 100 µM (inactive)	> 100 µM (inactive)	> 100 µM (inactive)	> 100 µM (inactive)	> 100 µM (inactive)
